For assay [1], the system named is HLA Class II-DRβ antigen mRNA. Briefly: Northern blotting, steady-state HLA Class II-DRβ mRNA in T47D cells. The class given is cell-based, human. The note with it: 72 hr, 500 units/ml IFN-α or IFN-β, 50 units/ml IFN-γ, 0.1 μg/ml TPA, MEZ or ADMB, densitometry. The procedure:
FIG. 3: Effect of interferon, ADMB, TPA and MEZ, alone and in combination with H-7, on steady-state mRNA levels of HLA Class I antigens, HLA Class II-DRβ antigen, c-erbB-2, ICAM-1 and GAPDH in T47D human breast carcinoma cells. […] Cultures were also grown in the presence of 0.1 μg/ml of H-7 for 72 hr with and without the additional compounds indicated above. Total cytoplasmic RNA was isolated and processed as described in “Detailed Description Of The Invention.” Control: CON; recombinant human leukocyte interferon-A: IFN-αA; recombinant human fibroblast interferon: IFN-β; recombinant human immune interferon: IFN-γ; ADMB; 3-(N-acetylamino)-5-(N-decyl-N-methylamino)-benzyl alcohol; TPA; 12-0-tetradecanoyl-phorbol-13-acetate; MEZ; mezerein; H-7: (1-(5-isoquinolinesulfonyl)-2-methylpiperazine dihydrochloride.
Steady-state levels of HLA Class I, HLA Class II-DRβ, c-erbB-2 and ICAM-I mRNA in control and treated T47D cells were determined by Northern blotting analysis of total cytoplasmic RNA probed with appropriate ^32P-labeled gene probes as previously described. Northern blots were also probed with a ^32P-labeled glyceraldehyde phosphate dehydrogenase (GAPDH) gene probe to verify equal […] under various experimental conditions. Following hybridization, the filters were washed and exposed for autoradiography.

Another assay relates to T47D cells. Description: T47D cell growth assay (Coulter Counter). The class given is cell-based, human. The settings on record: for effect on 72 hr growth: 0.1 μg/ml, FIG. 1. As to the method: FIG. 1: Effect of H-7, TPA, MEZ and ADMB on T47D cell growth and DNA synthesis. Cell growth assays are presented in (A). T47D cells were seeded at 1×10^4 cells/35 mm tissue culture plate, the medium was changed with the indicated compounds 24 hr later and cell numbers were determined after an additional 72 hr growth at 37° C. by Coulter Counter. Results are the average of triplicate samples/experimental condition which varied by ≦10%. DNA synthesis assays are presented in (B). T47 D cells were seeded at 1.25×10^4 cells in 0.2 ml of media in 96 microtiter plates. Every 24 hr, cultures received 1 μCi of methyl-^3H-thymidine and 8 hr later cells were harvested and TCA precipitable counts were determined. Results are the average from replicate samples exposed to the indicated compounds for 72 hr. Replicate samples varied by ≦10% and replicate studies varied by ≦15%. Further details can be found in “Detailed Description Of The Invention”.
T47D cells were seeded at 5×10^3 cells/ml in 35 mm tissue culture plates and 24 hr later the medium was changed with the indicated compounds. Seventy-two hr later the cells were resuspended in trysin/versene (0.125%/0.02%, w/w) and counted using a ZM Coulter Counter (Coulter Electronics). For ^3H-thymidine incorporation studies, T47D cells were seeded at 1.25×10^4 cells in 0.2 ml of media in 96 well microtiter plates. Every 24 hr, plates received 1 μCi of methyl-^3H-thymidine (specific activity […]) (ICN Radiochemicals, Irvine, Calif.), cells were harvested 8 hr after the addition of labeled thymidine and TCA precipitable counts were determined using a Packard scintillation counter. Replicate samples varied by ≦10% and replicate studies varied by ≦15%.

Read-outs that look alike come from different tables or passages of the source.

With `CCCCCCCCCCN(C)c1cc(CO)cc(NC(C)=O)c1` [ADMB, 3-(N-acetylamino)-5-(N-decyl-N-methylamino)-benzyl alcohol], the “increase in HLA Class II-DR antigen mRNA levels” value (shortened to “increase”) in assay [1] was “did not increase”. Also, in the assay on T47D cells (T47D cells), the “effect on 72 hr growth” value is “only marginally altered”.

For the molecule `C=C(C)[C@@]12O[C@@]3(c4ccccc4)O[C@@H]1[C@@H]1[C@@H]4O[C@]4(CO)[C@@H](O)[C@]4(O)C(=O)C(C)=C[C@H]4[C@@]1(O3)[C@H](C)[C@H]2OC(=O)/C=C/C=C/c1ccccc1` [MEZ, mezerein], the “increase” value in assay [1] is 1.2 fold. Also, the “effect on 72 hr growth” value in the assay on T47D cells (T47D cells) was “only marginally altered”. The “72 hr growth suppression in combination with H-7” value with T47D cells (T47D cells, in combination with 0.1 μg/ml of H-7, data not shown) is “No additive or synergistic effect”.

With `CCCCCCCCCCCCCC(=O)O[C@@H]1[C@@H](C)[C@@]2(O)[C@@H](C=C(CO)C[C@]3(O)C(=O)C(C)=C[C@@H]23)[C@H]2C(C)(C)[C@]12OC(C)=O` [TPA, 12-0-tetradecanoyl-phorbol-13-acetate], the “increase” value in assay [1] is reported as “did not increase”. The “72 hr growth suppression in combination with H-7” value with T47D cells is reported as “No additive or synergistic effect”. For the same molecule, the “effect on 72 hr growth” value with T47D cells (T47D cells) is recorded as “suppressed to the greatest degree”.

B1: IFN-β: recombinant human fibroblast interferon with a serine substituted for a cysteine at position 17 (protein, UniProt P01574 22-187, looked up, variant C17S)
Interferon beta: MSYNLLGFLQRSSNFQSQKLLWQLNGRLEYCLKDRMNFDIPEEIKQLQQFQKEDAALTIYEMLQNIFAIFRQDSSSTGWNETIVENLLANVYHQINHLKTVLEEKLEKEDFTRGKLMSSLHLKRYYGRILHYLKAKEYSHCAWTIVRVEILRNFYFINRLTGYLRN
On to B1, for which the “increase” value in assay [1] amounted to 1.2 fold.

B2: IFN-γ: recombinant human immune interferon produced in Escherichia coli (protein, UniProt P01579 24-161, looked up)
Interferon gamma: QDPYVKEAENLKKYFNAGHSDVADNGTLFLGILKNWKEESDRKIMQSQIVSFYFKLFKNFKDDQSIQKSVETIKEDMNVKFFNSNKKKRDDFEKLTNYSVTDLNVQRKAIHELIQVMAELSPAAKTGKRKRSQMLFRG
Regarding B2, the “increase” value in assay [1] is given as 1.25 fold.
